# From patent publication US20240269139A1, “COMPOUNDS FOR TARGETED PROTEIN DEGRADATION OF KINASES” (DANA-FARBER CANCER INSTITUTE, INC., priority 2020, published 2024)
# Read-outs that look alike come from different tables or passages of the source.
# Key:
# Assay type in all cases: cell-based
# [1] = target: protein kinases (human kinome) (Homo sapiens, UniProt P51451); settings: for logFC of BLK (P51451): down
# [2] = test system: protein kinases (human kinome); settings: for logFC of SRC: Accession P12931-2; for logFC LCK: accession P06239-3; for logFC LCK / logFC LCK (P06239-3): direction of change down; for logFC RPS6KA1: RPS6KA1 (Q15418-2)
# [3] = target: protein kinases (human kinome) (Homo sapiens, UniProt P53671); settings: for logFC LIMK2: LIMK2 (P53671), down; for logFC of LIMK2: LIMK2 P53671
# Chain of protein kinases (human kinome) (Homo sapiens, UniProt P53671) (P53671 whole entry): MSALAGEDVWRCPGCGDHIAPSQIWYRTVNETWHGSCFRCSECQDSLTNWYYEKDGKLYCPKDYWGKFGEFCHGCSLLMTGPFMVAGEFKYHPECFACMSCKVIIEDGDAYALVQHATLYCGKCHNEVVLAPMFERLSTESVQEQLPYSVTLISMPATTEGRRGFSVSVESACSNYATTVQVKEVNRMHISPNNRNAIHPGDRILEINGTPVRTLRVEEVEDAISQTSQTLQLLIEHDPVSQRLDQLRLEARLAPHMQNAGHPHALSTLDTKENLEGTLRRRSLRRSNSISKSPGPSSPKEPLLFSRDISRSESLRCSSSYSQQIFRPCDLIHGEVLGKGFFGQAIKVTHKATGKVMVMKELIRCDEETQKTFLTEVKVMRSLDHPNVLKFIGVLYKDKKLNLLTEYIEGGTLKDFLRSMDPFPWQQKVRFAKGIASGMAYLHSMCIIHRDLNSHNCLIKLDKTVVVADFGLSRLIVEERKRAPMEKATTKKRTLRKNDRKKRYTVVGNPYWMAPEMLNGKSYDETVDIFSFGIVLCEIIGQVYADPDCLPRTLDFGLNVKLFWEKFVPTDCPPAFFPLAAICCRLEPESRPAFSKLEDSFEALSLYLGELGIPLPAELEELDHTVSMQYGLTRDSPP
# [4] = AURKB Q96GD4-5, experiment wp137
# [5] = CDK9 (P50750-2) protein abundance, degrader vs DMSO, down
# [6] = SRC (P12931-2) protein abundance, degrader vs DMSO, down
# Chain of protein kinases (human kinome) (Homo sapiens, UniProt P51451) (P51451 whole entry): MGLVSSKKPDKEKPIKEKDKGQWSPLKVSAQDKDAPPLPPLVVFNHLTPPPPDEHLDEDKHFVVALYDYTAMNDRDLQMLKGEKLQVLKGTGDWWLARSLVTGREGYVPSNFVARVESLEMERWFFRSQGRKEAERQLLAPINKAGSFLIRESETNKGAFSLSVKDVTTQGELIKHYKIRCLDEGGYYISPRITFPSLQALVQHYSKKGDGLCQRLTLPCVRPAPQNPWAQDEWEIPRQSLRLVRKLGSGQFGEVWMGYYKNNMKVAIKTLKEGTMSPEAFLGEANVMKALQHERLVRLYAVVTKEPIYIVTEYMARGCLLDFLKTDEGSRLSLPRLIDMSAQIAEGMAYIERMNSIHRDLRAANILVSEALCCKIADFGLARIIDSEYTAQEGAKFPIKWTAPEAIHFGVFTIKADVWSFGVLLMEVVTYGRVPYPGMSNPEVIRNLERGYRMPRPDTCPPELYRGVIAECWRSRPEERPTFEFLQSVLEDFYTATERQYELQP
structure (smiles),measurement,setting,value
CC(C)S(=O)(=O)c1ccccc1Nc1nc(Nc2ccc(N3CCN(CCOCCOCCC(=O)NCCNc4cccc5c4CN(C4CCC(=O)NC4=O)C5=O)CC3)cc2)ncc1Cl (centres unmarked) [TL13.97],logFC BLK,"[1]; BLK (P51451), direction down, experiment wp137",−2.219
same,logFC of BLK (P51451),[1]; Experiment wp137,−2.219
same,logFC,[2]; [4],−0.7523
same,logFC AURKB,[2]; [4],−0.7523
same,logFC BUB1B,"[2]; Accession O60566-3, experiment wp137, direction down",−0.3313
same,logFC of SRC,[2]; experiment wp137,−0.4824
same,logFC of CDK17,"[2]; Accession Q00537-2, experiment wp137",−0.5683
same,logFC BUB1B,"[2]; BUB1B (O60566-3), experiment wp137",−0.3313
same,logFC,[2]; [5],−1.37
same,logFC PRKAA1 (Q13131-2),"[2]; Experiment wp137, direction down",−0.6678
same,logFC LCK,[2]; experiment wp137,−0.8721
same,logFC RPS6KA1,[2]; experiment wp137,−0.3757
same,logFC,[2]; [6],−0.4824
same,logFC CDK9 (P50750-2),[2]; experiment wp137,−1.37
same,logFC PRKAA1 (Q13131-2),[2]; experiment wp137,−0.6678
same,logFC RPS6KA1 (Q15418-2),[2]; experiment wp137,−0.3757
same,logFC of CDK17 (Q00537-2),[2]; experiment wp137,−0.5683
same,logFC LCK (P06239-3),[2]; experiment wp137,−0.8721
same,logFC LIMK2,[3]; experiment wp137,−0.9054
same,logFC of LIMK2,[3]; experiment wp137,−0.9054
CS(=O)(=O)Nc1cccc(-c2csc3cnc(Nc4ccc(N5CCN(CCOCCOCCOc6cccc7c6C(=O)N(C6CCC(=O)NC6=O)C7=O)CC5)cc4)nc23)c1 (centres unmarked) [RSS0628],logFC,"[2]; CAMKK1 (Q8N5S9-2), experiment wp045",−0.3412
same,logFC of CAMKK1 (Q8N5S9-2),[2]; Experiment wp045,−0.3412
same,kinases the bifunctional compound degrades,[2]; as stated for the structure in the embodiments,"AAK1. AURKA, CAMKK1, CDK4, CDK6, LIMK2, NEK9, PTK2B, STK17A, STK17B, ULK1, ULK3, and WEE1"
same,Kinase hits,"[2]; kinases significantly downregulated vs DMSO (fold change cutoff −1.25, P-value<0.01), ≤8 h, 0.1-5 μM degrader, 7 cell lines","AAK1, AURKA, CAMKK1, CDK4, CDK6, LIMK2, NEK9, PTK2B, STK17A, STK17B, ULK1, ULK3, WEE1"
same,Total no. kinase hits,[2]; number of degraded kinases per library compound,13
same,logFC LIMK2,[3]; experiment wp045,−0.7182
same,logFC of LIMK2,[3]; experiment wp045,−0.7182
CC(C)S(=O)(=O)c1ccccc1Nc1nc(Nc2ccc(N3CCN(CCOCCNC(=O)CNc4ccc5c(c4)C(=O)N(C4CCC(=O)NC4=O)C5=O)CC3)cc2)ncc1Cl (centres unmarked) [SK.3.93],logFC of BLK,"[1]; BLK P51451, experiment wp016",−1.502
same,logFC of BLK (P51451),[1]; Experiment wp016,−1.502
same,logFC of SRC,[2]; experiment wp016,−0.3456
same,logFC,[2]; [5],−0.6376
same,logFC PRKAA1 (Q13131-2),"[2]; Experiment wp016, direction down",−0.4738
same,logFC LCK,[2]; experiment wp016,−0.7798
same,logFC RPS6KA1,[2]; experiment wp016,−0.3413
same,logFC,[2]; [6],−0.3456
same,logFC CDK9 (P50750-2),[2]; experiment wp016,−0.6376
same,logFC PRKAA1 (Q13131-2),[2]; experiment wp016,−0.4738
same,logFC RPS6KA1 (Q15418-2),[2]; experiment wp016,−0.3413
same,logFC LCK (P06239-3),[2]; experiment wp016,−0.7798
same,logFC LIMK2,[3]; experiment wp016,−1.01
same,logFC of LIMK2,[3]; experiment wp016,−1.01
